Here are results for one compound from US5763596A, “C-4' modified adenosine kinase inhibitors” (Metabasis Therapeutics, Inc., priority 1996, dated 1998).

The test system of one assay is male SA rats. The assay can be described thus: anticonvulsant activity, maximal electroshock (MES) model. Format: in vivo. The settings on record: Rattus norvegicus, ip, 1 h before MES; >5 / <5: fewer / more than 50% of animals inhibited at 5 mg/kg in initial screen. As to the method: The anticonvulsant activity of the tested compounds was evaluated in male SA rats (100-150 g, Simonsen) using the maximal electroshock (MES) model described in Swinyard et al., Antiepileptic Drugs, 3d Ed. at 85-102 (Levy, et al., eds.), NY: Raven Press (1989). The rats were maintained on a 12/12 light/dark cycle in temperature controlled facilities with free access to food and water. For p.o. administration, the animals are fasted overnight, prior to the experiment. One hour prior to seizure testing, the animals were injected interperitoneally (ip) or orally (per os, po) with one of various doses of test compound dissolved in DMSO or PEG 400.
Maximal electroshock seizures (MES) were induced by administering a 150 mA, 60 Hz current for 0.2 seconds via corneal electrodes using a Wahlquist Model H stimulator. […] This endpoint was expressed as the percentage of animals in which the response was inhibited. Typically, compounds were screened initially at one hour following a dose of 5 mg/kg ip. […] The results for exemplary compounds of the invention are set forth in Table 8, expressed as ED50 values.
(The maximal electroshock test induces tonic seizures with an electrical stimulus.)

The test system of a further assay is Rats. The experiment in a line: anti-inflammatory activity, carrageenan paw. The format is in vivo, rat. The settings on record: 10 mg/kg, swelling after 3 hours. As to the method:
Carrageenan (Type λ) was suspended in sterile PBS at 1% (w/v), autoclaved for 30 minutes, and stored at room temperature. Rats were pretreated with vehicle or AK inhibitor (10 mg/kg) by oral gavage or i.p. administration and the volume of the left hind paw was measured using a water displacement plethysmometer (Stoelting Co., Wood Dale, Ill.). One hour after oral treatment or 30 minutes after i.p. treatment, the rats were briefly anaesthetized, and 0.1 ml of the carrageenan solution was injected subcutaneously into the planar surface of the left hind paw. The ensuing paw swelling was measured by plethysmometry after 3 hours. The paw volume in milliliters was subtracted from the pre-injection paw volume. Data are presented in Table 8 as the percent inhibition of paw swelling in AK inhibitor treated animals, compared to vehicle treated control animals.
On the technique in general: The carrageenan paw model is a standard test of acute inflammation.

The ED50 is the dose at which the effect has come halfway, by size or by number of responders. Read a low ED50 as an effect at a small dose. Regarding `O[C@@H]1[C@H](O)CO[C@H]1n1cc(-c2ccccc2)c2c(Nc3ccc(F)cc3)ncnc21` [compound 28], in the assay with male SA rats, the ED50 at 5 mg/kg was less than 5 mg/kg. Further, the “Carrageenan Paw (% inh) i.p.” value with Rats (i.p., 30 min before carrageenan) is recorded as 52%. Besides, in the assay on Rats (p.o., 1 h before carrageenan), the “Carrageenan Paw (% inh) p.o.” value came out at 25%.
